Measurements taken from ChEMBL document CHEMBL3621169, “Synthesis of tetrazole compounds as a novel type of potential antimicrobial agents and their synergistic effects with clinical drugs and interactions with calf thymus DNA” (Medchemcomm, 2015).
In brackets after ≈: the same amount, converted by molar mass.

Columns and labels:
[1] = Ionization constant, pKa of the compound by UV spectroscopy; format: physicochemical
[2] = n-octanol/water partition coefficient, log P of the compound at 25 deg C after 24 hrs by saturation shake flask based UV spectroscopy; format: physicochemical
[3] = test system: Staphylococcus aureus; assay: Antibacterial activity against Staphylococcus aureus ATCC 25923 after 24 hrs by micro broth dilution method; format: functional; conditions: ATCC 25923, 24 h
[4] = test system: Staphylococcus aureus; assay: Antibacterial activity against methicillin-resistant Staphylococcus aureus N315 after 24 hrs by micro broth dilution method; format: functional; conditions: N315, 24 h
[5] = test system: Bacillus spizizenii; assay: Antibacterial activity against Bacillus subtilis ATCC 6633 after 24 hrs by micro broth dilution method; format: functional; conditions: ATCC 6633, 24 h
[6] = test system: Micrococcus luteus; assay: Antibacterial activity against Micrococcus luteus ATCC 4698 after 24 hrs by micro broth dilution method; format: functional; conditions: ATCC 4698, 24 h
[7] = test system: Bacillus sp.; assay: Antibacterial activity against Bacillus proteus ATCC 13315 after 24 hrs by micro broth dilution method; format: functional; conditions: Bacillus sp. (in: firmicutes), ATCC 13315, 24 h
[8] = test system: Escherichia coli; assay: Antibacterial activity against Escherichia coli DH52 after 24 hrs by micro broth dilution method; format: functional; conditions: DH52, 24 h
[9] = test system: Pseudomonas aeruginosa; assay: Antibacterial activity against Pseudomonas aeruginosa ATCC 27853 after 24 hrs by micro broth dilution method; format: functional; conditions: ATCC 27853, 24 h
[10] = test system: Shigella dysenteriae; assay: Antibacterial activity against Shigella dysenteriae ATCC 51252 after 24 hrs by micro broth dilution method; format: functional; conditions: ATCC 51252, 24 h
[11] = test system: Candida albicans; assay: Antifungal activity against Candida albicans ATCC 90029 after 24 hrs by micro broth dilution method; format: functional; conditions: ATCC 90029, 24 h
[12] = test system: Cyberlindnera jadinii; assay: Antifungal activity against Candida utilis ATCC 9950 after 24 hrs by micro broth dilution method; format: functional; conditions: Williopsis jadinii, ATCC 9950, 24 h
[13] = test system: Candida; assay: Antifungal activity against Candida mycoderma after 24 hrs by micro broth dilution method; format: functional
[14] = test system: Aspergillus flavus; assay: Antifungal activity against Aspergillus flavus after 24 hrs by micro broth dilution method; format: functional

Structure (SMILES)	pKa [1]	logP at 24 h [2]	MIC [3]	MIC [4]	MIC [5]	MIC [6]	MIC [7]	MIC [8]	MIC [9]	MIC [10]	MIC [11]	MIC [12]	MIC [13]	MIC [14]
CCCCCCCCN(Cc1nnn[nH]1)c1ccccc1	4.83	2.24	128 µg/mL (≈ 445 µM)	128 µg/mL (≈ 445 µM)	128 µg/mL (≈ 445 µM)	64 µg/mL (≈ 223 µM)	128 µg/mL (≈ 445 µM)	64 µg/mL (≈ 223 µM)	256 µg/mL (≈ 891 µM)	128 µg/mL (≈ 445 µM)	64 µg/mL (≈ 223 µM)	128 µg/mL (≈ 445 µM)	32 µg/mL (≈ 111 µM)	128 µg/mL (≈ 445 µM)
Fc1ccccc1CN(Cc1nnn[nH]1)c1ccccc1	4.22	1.28	64 µg/mL (≈ 226 µM)	64 µg/mL (≈ 226 µM)	32 µg/mL (≈ 113 µM)	64 µg/mL (≈ 226 µM)	64 µg/mL (≈ 226 µM)	64 µg/mL (≈ 226 µM)	64 µg/mL (≈ 226 µM)	128 µg/mL (≈ 452 µM)	32 µg/mL (≈ 113 µM)	32 µg/mL (≈ 113 µM)	16 µg/mL (≈ 56.5 µM)	64 µg/mL (≈ 226 µM)
COc1ccc(N(Cc2nnn[nH]2)Cc2ccc(F)cc2F)cc1	4.31	1.37	64 µg/mL (≈ 193 µM)	64 µg/mL (≈ 193 µM)	64 µg/mL (≈ 193 µM)	64 µg/mL (≈ 193 µM)	64 µg/mL (≈ 193 µM)	64 µg/mL (≈ 193 µM)	64 µg/mL (≈ 193 µM)	64 µg/mL (≈ 193 µM)	32 µg/mL (≈ 96.6 µM)	16 µg/mL (≈ 48.3 µM)	16 µg/mL (≈ 48.3 µM)	32 µg/mL (≈ 96.6 µM)
Cc1ccc(N(Cc2nnn[nH]2)Cc2ccc(F)cc2F)cc1	4.23	1.42	64 µg/mL (≈ 203 µM)	64 µg/mL (≈ 203 µM)	64 µg/mL (≈ 203 µM)	64 µg/mL (≈ 203 µM)	64 µg/mL (≈ 203 µM)	64 µg/mL (≈ 203 µM)	32 µg/mL (≈ 101 µM)	64 µg/mL (≈ 203 µM)	32 µg/mL (≈ 101 µM)	32 µg/mL (≈ 101 µM)	16 µg/mL (≈ 50.7 µM)	32 µg/mL (≈ 101 µM)
Fc1ccc(CN(Cc2nnn[nH]2)c2ccccc2)c(F)c1	4.13	1.36	64 µg/mL (≈ 212 µM)	32 µg/mL (≈ 106 µM)	64 µg/mL (≈ 212 µM)	64 µg/mL (≈ 212 µM)	64 µg/mL (≈ 212 µM)	64 µg/mL (≈ 212 µM)	32 µg/mL (≈ 106 µM)	64 µg/mL (≈ 212 µM)	64 µg/mL (≈ 212 µM)	16 µg/mL (≈ 53.1 µM)	16 µg/mL (≈ 53.1 µM)	32 µg/mL (≈ 106 µM)
Clc1ccc(CN(Cc2nnn[nH]2)c2ccccc2)cc1	4.38	1.39	64 µg/mL (≈ 214 µM)	128 µg/mL (≈ 427 µM)	32 µg/mL (≈ 107 µM)	64 µg/mL (≈ 214 µM)	32 µg/mL (≈ 107 µM)	32 µg/mL (≈ 107 µM)	64 µg/mL (≈ 214 µM)	64 µg/mL (≈ 214 µM)	16 µg/mL (≈ 53.4 µM)	32 µg/mL (≈ 107 µM)	16 µg/mL (≈ 53.4 µM)	32 µg/mL (≈ 107 µM)
Fc1ccc(CN(Cc2nnn[nH]2)c2ccccc2)cc1	4.2	1.26	64 µg/mL (≈ 226 µM)	64 µg/mL (≈ 226 µM)	64 µg/mL (≈ 226 µM)	256 µg/mL (≈ 904 µM)	128 µg/mL (≈ 452 µM)	64 µg/mL (≈ 226 µM)	64 µg/mL (≈ 226 µM)	64 µg/mL (≈ 226 µM)	32 µg/mL (≈ 113 µM)	16 µg/mL (≈ 56.5 µM)	16 µg/mL (≈ 56.5 µM)	32 µg/mL (≈ 113 µM)
